Results on one molecule are retold here after US20240041878A1, “APELIN RECEPTOR MODULATORS FOR TREATMENT OF A DISORDER OR DISEASE ASSOCIATED WITH BBB PERMEABILITY” (BioAge Labs, Inc., priority 2022, published 2024).

The structures appear in SMILES notation.

The test system of this experiment is SOD1^G93A mice. In words: ICV administration in SOD1^G93A mouse model of ALS. Particulars: ICV via Alzet minipumps, 1 month. The format is in vivo. The method, then:
The study accesses the effects of BGE-105 in a mouse model of ALS. The study establishes pharmacokinetic/pharmacodynamic features of intracerebroventricular (ICV) administration of BGE-105 in wildtype C57BL/6J mice. Multiple doses across multiple timepoints are tested to determine drug characteristics within the central nervous system (CNS). BGE-105 is administered to SOD1^G93A mice using Alzet minipumps connected to ICV cannulas.
Astrocyte reactivity, driven by IL-la/TNFα/C1q-mediated neurotoxicity, contributes to spinal cord motor neuron death and motor dysfunction in mouse models of ALS. […] This study first validates intraventricular administration of BGE-105 into wildtype mice to establish CNS-specific drug properties and guide optimal dose selection. Next, the efficacy of CNS delivery of BGE-105 to minimize motor neuron death, improve motor function, and extend lifespan in the SOD1^G93A mouse model of ALS is tested. For experiments in vivo, BGE-105 are administered to SOD1^G93A mice using Alzet minipumps. Alzet minipumps are implanted at 4 months of age, followed by 1 month of continuous administration of BGE-105.
Analyses of motoric, behavioral, and survival endpoints are measured. Brain, spinal cord, and skeletal muscle are dissected post mortem for histochemical and transcriptomic analyses to determine target engagement and mechanisms of action.
Alzet minipumps connected to intraventricular cannulas are utilized for continuous CNS delivery of BGE-105, akin to previous studies on APJ agonism in the CNS (Zhu et al., 2020. Apelin-36 mediates neuroprotective effects by regulating oxidative stress, autophagy and apoptosis in MPTP-induced Parkinson's disease model mice, Brain Research, Volume 1726, 2020, 146493, ISSN 0006-8993). 4-month-old SOD1^G93A mice (C57BL/6J background; strain #004435, Jackson Laboratory) of both sexes (n=12/group; 6 male, 6 female) are randomized into vehicle or two separate treatment groups before undergoing baseline motor behavior assessments including the open field, grid hang, beam walk, and accelerating rotarod. […]

In the case of `COc1cccc(OC)c1-n1c(NS(=O)(=O)[C@@H](C)[C@H](C)c2ncc(C)cn2)nnc1-c1cncc(C)c1` [BGE-105, (2S,3R)—N-(4-(2,6-dimethoxyphenyl)-5-(5-methyl-3-pyridinyl)-4H-1,2,4-triazol-3-yl)-3-(5-methyl-2-pyrimidinyl)-2-butanesulfonamide], the lifespan result is “extends lifespan”, the motor function entry is “improves motor function” and the motor neuron death result is given as “minimizes motor neuron death”.
